For data set [1], the system named is AMPA receptor. Conditions: cited from earlier work.
Data set [2] relates to T1, AMPA receptors.
T1 construct: EC50 (percent increase in field EPSP amplitude); other: estimated from log dose/response curves; maximal response of 85; effect on field EPSP amplitude and duration; other: 1.5 mM, 15 minute infusion; enhancement of the area of the field EPSP; other: 100 μM; mean and S.D. of 4
The data set is described as follows: field EPSPs in field CA1 of in vitro slices of rat hippocampus. It counts as cell-based. The following applies: for EC50: estimated from log dose/response curves, maximal response of 85% increase assumed where limited solubility prevented a maximum, read-out: EC50 (percent increase in field EPSP amplitude). As for the experimental part: The physiological effects of invention compounds can be tested in vitro with slices of rat hippocampus as follows. Excitatory responses (field EPSPs) are measured in hippocampal slices which are maintained in a recording chamber continuously perfused with artificial cerebrospinal fluid (ACSF).
To conduct these tests, the hippocampus was removed from anesthetized, 2 month old Sprague-Dawley rats and in vitro slices (400 micrometers thick) were prepared and maintained in an interface chamber at 35° C. using conventional techniques [see, for example, Dunwiddie and Lynch, J. Physiol. Vol. 276: 353-367 (1978)]. The chamber was constantly perfused at 0.5 ml/min with ACSF containing (in mM): NaCl 124, KCl 3, KH2PO4 1.25, MgSO4 2.5, CaCl2 3.4, NaHCO3 26, glucose 10 and L-ascorbate 2. A bipolar nichrome stimulating electrode was positioned in the dendritic layer (stratum radiatum) of the hippocampal subfield CA1 close to the border of subfield CA3.
Current pulses (0.1 msec) through the stimulating electrode activate a population of the Schaffer-commissural (SC) fibers which arise from neurons in the subdivision CA3 and terminate in synapses on the dendrites of CA1 neurons. Activation of these synapses causes them to release the transmitter glutamate. Glutamate binds to the post-synaptic AMPA receptors which then transiently open an associated ion channel and permit a sodium current to enter the postsynaptic cell. This current results in a voltage in the extracellular space (the field excitatory post-synaptic potential or field “EPSP”) which is recorded by a high impedance recording electrode positioned in the middle of the stratum radiatum of CA1.
For the experiments summarized in FIG. 1, the intensity of the stimulation current was adjusted to produce half-maximal EPSPs (typically about 1.5-2.0 mV). Paired stimulation pulses were given every 40 sec with an interpulse interval of 200 msec (see below). The field EPSPs of the second response were digitized and analyzed to determine amplitude, half-width, and response area. If the responses were stable for 15-30 minutes (baseline), test compounds were added to the perfusion lines for a period of about 15 minutes. The perfusion was then changed back to regular ACSF.
Paired-pulse stimulation was used since stimulation of the SC fibers, in part, activates interneurons which generate an inhibitory postsynaptic potential (IPSP) in the pyramidal cells of CA1. This feed forward IPSP typically sets in after the EPSP reaches its peak. It accelerates the repolarization and shortens the decay phase of the EPSP, and thus could partially mask the effects of the test compounds. One of the relevant features of the feed-forward IPSP is that it can not be reactivated for several hundred milliseconds following a stimulation pulse. This phenomenon can be employed to advantage to eliminate IPSP by delivering paired pulses separated by 200 milliseconds and using the second (“primed”) response for data analysis.
The variables set forth in the table refer to the following generic structure: […]

In data set [3] the test system is AMPA receptors. The data set is described as follows: long-term potentiation (theta burst stimulation) in CA1 field of hippocampal slices. Format: cell-based, rat. Conditions: 1.5 mM infused 15 minutes prior to theta burst stimulation; five experiments; p<0.02. Here is the method:
Long-term potentiation (LTP; a stable increase in the EPSP size of single responses after brief periods of high frequency stimulation) was elicited in the CA1 field of hippocampal slices in the absence (see FIG. 3, stippled bars, N=6) and in the presence of 1.5 mM of Invention Compound I (see FIG. 3, striped bars, N=5). In the latter case, the amount of potentiation was determined after washing out the test compound and comparing the response size with that before test compound infusion. Data presented in FIG. 3 show the percent increase in the EPSP amplitude (mean and S.D.) at 40, 60, and 90 minutes after LTP induction.
For these studies, field EPSPs in slices of hippocampus were elicited by single stimulation pulses and recorded by extracellular electrodes as described in Example II. After collecting responses every 40 seconds for 20-30 minutes to establish a baseline, LTP was induced with ten short bursts of pulses delivered to the CA3 axons; each burst consisted of four pulses separated by 10 milliseconds; the interval between the bursts was 200 milliseconds. This pattern of axon stimulation mimics a discharge rhythm observed in the hippocampus of animals engaged in learning and is referred to as the “theta burst stimulation paradigm” [see, for example, Larson and Lynch in Science Vol. 232: 985-988 (1986)]. […]

Data set [4] concerns AMPA receptor. Format: in vivo, rat. Conditions: 120-180 mg/kg i.p. As for the experimental part:
Stimulating and recording electrodes were placed in the hippocampus of anesthetized rats so as to activate and monitor the same synaptic responses as in the slice studies described in Example XV. […] The time constant for the decay of the EPSP is a measure for the duration of the response.
In these experiments, male Sprague-Dawley rats were anesthetized with urethane (1.7 g/kg) and body temperature was maintained at 37° C. with the use of a heat lamp. A stimulation electrode (two twisted stainless steel wires, 150 μm diameter, insulated with teflon) was placed stereotaxically in the trajectory of the Schaffer collateral (SC) pathway from CA3 to CA1 of the hippocampus (coordinates relative to Bregma: 3.5 mm P., 3.5 mm L., and 3.0-3.7 mm V). […]
Negative field potentials reflecting dendritic EPSPs evoked by SC stimulation (0.1 ms pulses, 10-100 μA) with paired pulses (inter-pulse interval of 200 msec; see methodology described in Example XV) were amplified 500 times and digitized by computer at 20 sec intervals throughout each experiment. […] Decay time constants were determined by single exponential fits to the decay phase of the synaptic response and expressed as a percent of the value obtained during the pre-injection control period.

For data set [5] the following is noted: rat, in vivo, ip. An excerpt: To test the ability of invention compounds to pass the blood-brain barrier, Invention Compound II was labelled with carbon-11.
Radiolabelled Invention Compound II (see the table above) is synthesized by the following scheme (wherein the numbers in parenthesis refer to the quantity of reagent used, in millimoles): [drawing 31]
wherein Ar is aryl (such as methylenedioxybenzene), Im is imidazole (thus, ImHCl is imidazole hydrochloride), and R is an alkyl or alkylene radical (so that R2NH is, for example, piperidine). ^11C-labelled CO2 is produced by cyclotron irradiation and subsequently used in the above-described synthetic scheme. The time to complete the synthesis is about […] (2 times the half-life of carbon-11). After purification of [^11C]II on C18 Sep Pak, 260 μCi was diluted with 20 mg of nonradioactive II as carrier in a 1-ml solution of 23% propylene glycol and 10% ethanol in physiologically-buffered saline in order to simulate the dosage of 100 mg/Kg that was used in behavioral studies. The final 1 ml of solution was administered to a 200 g rat under halothane anesthesia (1.4-1.7% in oxygen) by intraperitoneal (i.p.) injection.
Biodistribution of the radiotracer in the body of the rat was monitored by a positron camera (Scanditronix PC2048-15B) and the time-activity curves were constructed using a Vax 3500 (Digital Equipment Corporation) and shown in FIG. 5.

For `COc1ccc(C(=O)NCCCC(=O)O)cc1` [anisoyl-GABA], the aniracetam-like effects result in data set [1] was “no aniracetam-like effects”.

Take `O=C(c1ccc2ncoc2c1)N1CCCCC1` [Compound X, 1-(1,3-benzoxazol-6-ylcarbonyl)-piperidine]: the concentration for a half-maximal effect (EC50) (in general, the concentration needed to bring the measured effect to its halfway point) in data set [2] was 1300 µM.

As for `O=C(c1ccc2c(c1)OCCO2)N1CC=CCC1` [Compound I], the “fold greater increase in the response area than aniracetam” value in data set [2] (750 μM) was “nine-fold”. In addition, in data set [2] (750 μM versus aniracetam 1500 μM, 15 minute infusion), the “effect on synaptic response compared with aniracetam” value is “much larger effect”. In data set [2] (after 15 minute infusion), the “reversibility of effect upon washout” value was “fully reversible upon washout”. Besides, the “times greater effect on response area than aniracetam at the same concentrations” value in data set [2] (dosages in the range of 750 μM to 1.5 μM) is 6-9 times. Besides, the “degree of stable long-term potentiation versus stimulation in absence of drug” value in data set [3] is “nearly twice as large”. Further, the “time within which the effect reversed after injection” value in data set [4] fell in the range of 60 to 120 min. The “effect on duration (decay time constant) of synaptic response” value in data set [4] (anesthetized rats, n=8) is listed as “rapid increase in the duration of the synaptic response”.

Consider `O=C(c1ccc2ocnc2c1)N1CC=CCC1` [Compound XI, 1-(1,3-benzoxazol-5-ylcarbonyl)-1,2,3,6-tetrahydropyridine], for which, in data set [2], the concentration for a half-maximal effect (EC50) was 3000 µM.

For `O=C(c1ccc2nc[nH]c2c1)N1CCCCC1` [Compound XII, 1-(1,3-benzimidazol-5-ylcarbonyl)-piperidine], the concentration for a half-maximal effect (EC50) in data set [2] is 5000 µM.

`O=C(c1ccc2ncoc2c1)N1CC=CCC1` [Compound IX, 1-(1,3-benzoxazol-6-ylcarbonyl)-1,2,3,6-tetrahydodyridine]: the concentration giving a half-maximal response (EC50) in data set [2] was 4000 µM.

For the compound `COc1ccc(C(=O)N2CC[C@@H](O)C2=O)cc1` [AHP, (R)-1-p-anisoyl-3-hydroxy-2-pyrrolidinone], the “facilitation of AMPA receptor mediated responses in slices” value in data set [1] (nootropics tested in slices) was “facilitate AMPA receptor mediated responses”.

Regarding `O=C(c1ccc2c(c1)OCO2)N1CCCCC1` [Compound II, 1-(1,3-benzodioxol-5-ylcarbonyl)-piperidine], in data set [5], the “brain distribution relative to head excluding the cranial cavity” value is “approximately equal”, the “brain distribution relative to heart” value is “two-thirds”, the “brain distribution relative to liver” value is given as “approximately one-quarter” and the “passage of the blood-brain barrier” value is “passes freely through the blood-brain barrier”. In addition, the “time to plateau of brain uptake” value in data set [5] lay in the range of 5 to 10 min.

In the case of `O=C(c1cccc2c1OCCO2)N1CC=CC1` [Compound VIII, 1-(1,4-benzodioxan-5-ylcarbonyl)-3-pyrroline], in data set [2], the EC50 was 3000 µM.

The record behind these values is patent US20020099050A1, “Drugs that enhance synaptic responses mediated by AMPA receptors” (priority 1993, published 2002).
